# Results as given in US6875760B2 (Novo Nordisk A/S, priority 1999, dated 2005).
# Molecular target: T1, cloned human glucagon receptor (Homo sapiens, UniProt P47871)
# T1 construct: expressed in transfected cells; plasma membrane preparation
# Test: Glucagon Binding Assay (II)
# Conditions: not given
# T1 sequence (P47871 26-477): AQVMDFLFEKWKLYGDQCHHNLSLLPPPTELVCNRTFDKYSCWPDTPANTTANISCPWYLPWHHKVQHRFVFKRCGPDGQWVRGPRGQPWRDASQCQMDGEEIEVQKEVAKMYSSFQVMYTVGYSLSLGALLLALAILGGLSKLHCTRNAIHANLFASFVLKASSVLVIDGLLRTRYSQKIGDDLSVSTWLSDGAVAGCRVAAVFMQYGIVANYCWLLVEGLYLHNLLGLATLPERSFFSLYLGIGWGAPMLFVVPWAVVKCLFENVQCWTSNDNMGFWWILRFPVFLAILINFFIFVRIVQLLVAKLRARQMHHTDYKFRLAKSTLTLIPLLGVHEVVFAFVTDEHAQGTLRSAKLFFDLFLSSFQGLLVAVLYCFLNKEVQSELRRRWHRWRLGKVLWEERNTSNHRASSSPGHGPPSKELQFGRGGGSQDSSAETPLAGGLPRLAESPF
row,Compound,IC50
1,CC(C)c1ccc(NC(=O)N(Cc2ccc(C(=O)NCCC(=O)O)cc2)C2CCC(C(C)(C)C)CC2)cc1 (stereo not drawn) [drawing 1170],35 nM

# Same assay, conditions: plasma membranes of BHK cells expressing the receptor; read-out: Glu Bd Assay (II) IC50
row,IC50,Compound
1,426 nM,O=C(O)CCNC(=O)c1ccc(CN(C(=O)Nc2ccc(OC(F)(F)F)cc2)C2CCC3CCCCC3C2)cc1 (stereo not drawn) [drawing 1173]
2,18 nM,"O=C(O)CCNC(=O)c1ccc(CN(C(=O)Nc2ccc(OC(F)(F)F)cc2)C2CCC(C3CCCCC3)CC2)cc1 (stereo not drawn) [Example 577, 3-{4-[1-(4-Cyclohexylcyclohexyl)-3-(4-trifluoromethoxyphenyl)ureidomethyl]benzoylamino}propionic acid]"
3,14 nM,CC(C)(C)[C@H]1CC[C@H](N(Cc2ccc(C(=O)NCCC(=O)O)cc2)C(=O)Nc2ccc(SC(F)(F)F)cc2)CC1 [Example 235]
4,142 nM,"O=C(O)CCNC(=O)c1ccc(CN(Cc2cccc(Br)c2)c2ccc(C3CCCCC3)cc2)cc1 [Example 581, 3-(4-{[(3-Bromobenzyl)-(4-cyclohexylphenyl)amino]methyl}benzoylamino)propionic acid]"
5,102 nM,"O=C(O)CCNC(=O)c1ccc(CN(Cc2ccc(OC(F)(F)F)cc2)c2ccc(C3CCCCC3)cc2)cc1 [Example 386, 3-(4-{[(4-Cyclohexylphenyl)-(4-trifluoromethoxybenzyl)amino]methyl}benzoylamino)propionic acid]"
6,108 nM,"O=C(O)CCNC(=O)c1ccc(CN(Cc2cc(Cl)cc(Cl)c2)c2ccc(C3CCCCC3)cc2)cc1 [Example 582, 3-(4-{[(4-Cyclohexylphenyl)-(3,5-dichlorobenzyl)amino}methyl]benzoylamino)propionic acid]"
7,205 nM,O=C(O)CCNC(=O)c1ccc(CN(Cc2cccc(Cl)c2)c2ccc(C3CCCCC3)cc2)cc1 [Example 583]
8,57 nM,"CC(C)(C)[C@H]1CC[C@H](N(Cc2ccc(C(=O)NCCC(=O)O)cc2)Cc2cc(Cl)cc(Cl)c2)CC1 [Example 580, 3-(4-{[(trans-4-tert-Butylcyclohexyl)-(3,5-dichlorobenzyl)amino]methyl}benzoylamino)propionic acid]"

# More lines, now with the values behind:
row,Compound,IC50
1,"CC(C)(C)C1CCC(N(Cc2ccc(C(=O)NCCC(=O)O)s2)C(=O)Nc2ccc(OC(F)(F)F)cc2)CC1 (stereo not drawn) [Example 113, 3-{5-[1-(4-tert-Butylcyclohexyl)-3-(4-trifluoromethoxyphenyl)ureidomethyl]thiophene-2-carbonylamino)propionic acid]",254 nM
2,CCCCOC(=O)c1ccc(NC(=O)N(Cc2ccc(C(=O)NCCC(=O)O)cc2)C2CCC(C)CC2)cc1 (stereo not drawn),188 nM
3,CCCCOC(=O)c1ccc(NC(=O)N(Cc2ccc(C(=O)NCCC(=O)O)cc2)C2CCCC(C)C2)cc1 (stereo not drawn),278 nM
4,CCCCOC(=O)c1ccc(NC(=O)N(Cc2ccc(C(=O)NCCC(=O)O)cc2)CC(C)(C)C)cc1,230 nM
5,CC1C(N(Cc2ccc(C(=O)NCCC(=O)O)cc2)C(=O)Nc2cc(Cl)cc(Cl)c2)CC2CC1C2(C)C (stereo not drawn) [Example 114],575 nM
6,"CC(C)(C)c1ccc(CN(Cc2ccc(C(=O)NCCC(=O)O)cc2)C(=O)Nc2cc(Cl)cc(Cl)c2)cc1 [Example 108, 3-{4-[1-(4-tert-Butylbenzyl)-3-(3,5-dichlorophenyl)ureidomethyl]benzoylamino)propionic acid]",669 nM
7,"CCCCOc1ccc(C(=O)NN(Cc2ccc(C(=O)NCCC(=O)O)cc2)C2Cc3ccccc3C2)cc1 [Example 587, 3-{4-[N′-(4-Butoxybenzoyl)-N-indan-2-ylhydrazinomethyl]benzoylamino}propionic acid]",692 nM

# Same assay, conditions: screened at 1 μM; library compounds; read-out: displacement of the glucagon tracer when screened at 1 μM concentration in the glucagon binding assay II
row,inhibition at 1 µM,Compound
1,> 50%,"CC(C)(C)C1CCC(N(Cc2ccc(OCCCC(=O)O)cc2)C(=O)Nc2ccc(OC(F)(F)F)cc2)CC1 (stereo not drawn) [Example 224, 4-{4-[1-(4-tert-Butylcyclohexyl)-3-(4-trifluoromethoxyphenyl)ureidomethyl]phenoxy}butyric acid]"
2,> 50%,"O=C(O)CCCOc1ccc(CN(C(=O)Nc2ccc(Cl)c(C(F)(F)F)c2)C2C[C@H]2c2ccccc2)cc1 (stereo in doubt) [Example 223, 4-{4-[3-(4-Chloro-3-trifluoromethylphenyl)-1-(2-phenylcyclopropyl)ureidomethyl]phenoxy}butyric acid]"
3,> 50%,"CC(C)(C)C1CCC(N(Cc2ccc(OCCCC(=O)O)cc2)C(=O)Nc2ccc(Cl)c(C(F)(F)F)c2)CC1 (stereo not drawn) [Example 225, 4-{4-[1-(4-tert-Butylcyclohexyl)-3-(4-chloro-3-trifluoromethylphenyl)ureidomethyl]phenoxy}butyric acid]"

# Continued, compound first:
row,Compound,inhibition at 1 µM
1,"CC(C)(C)C1CCC(N(Cc2cccc(C(=O)NCCC(=O)O)c2)C(=O)Nc2cc(Cl)cc(Cl)c2)CC1 (stereo not drawn) [Example 135, 3-{3-[1-(4-tert-Butylcyclohexyl)-3-(3,5-dichlorophenyl)ureidomethyl]benzoylamino)propionic acid]",> 50%
2,"CC(C)(C)C1CCC(N(Cc2ccc(C(=O)Nc3ccc4c(c3)OCCO4)cc2)C(=O)Nc2ccc(OC(F)(F)F)cc2)CC1 (stereo not drawn) [Example 161, 4-[1-(4-tert-Butylcyclohexyl)-3-(4-trifluoromethoxyphenyl)ureidomethyl]-N-(2,3-dihydro-1,4-benzodioxin-6-yl)benzamide]",> 50%
3,"CC(C)(C)C1CCC(N(Cc2ccc(OCCCC(=O)O)cc2)C(=O)Nc2cccc(SC(F)(F)F)c2)CC1 (stereo not drawn) [Example 198, 4-{4-[1-(4-tert-Butylcyclohexyl)-3-(3-trifluoromethylsulfanylphenyl)ureidomethyl]phenoxy}butyric acid]",> 50%
4,"CC(C)(C)C1CCC(N(Cc2ccc(C(=O)Nc3ccc4c(c3)C(=O)NC4=O)cc2)C(=O)Nc2ccc(Cl)cc2)CC1 (stereo not drawn) [Example 166, 4-[1-(4-tert-Butylcyclohexyl)-3-(4-chlorophenyl)ureidomethyl]-N-(1,3-dioxo-2,3-dihydro-1H-isoindol-5-yl)benzamide]",> 50%
5,"O=C(O)CCCOc1ccc(CN(C(=O)Nc2cc(C(=O)O)cc(C(=O)O)c2)c2ccc(C3CCCCC3)cc2)cc1 [Example 220, 5-[3-[4-(3-Carboxypropoxy)benzyl]-3-(4-cyclohexylphenyl)ureido]isophthalic acid]",> 50%
6,"O=C(O)CCNC(=O)c1ccc(CN(CCc2cccc(Cl)c2)C(=O)Nc2cccc(SC(F)(F)F)c2)cc1 [Example 201, 3-{4-[1-[2-(3-Chlorophenyl)ethyl]-3-(3-trifluoromethylsulfanylphenyl)ureidomethyl]benzoylamino}propionic acid]",> 50%
7,"CC(C)(C)C1CCC(N(Cc2ccc(C(=O)Nc3ccc(O)c([N+](=O)[O-])c3)cc2)C(=O)Nc2cc(Cl)cc(Cl)c2)CC1 (stereo not drawn) [Example 169, 4-[1-(4-tert-Butylcyclohexyl)-3-(3,5-dichlorophenyl)ureidomethyl]-N-(4-hydroxy-3-nitrophenyl)benzamide]",> 50%
8,"CC(C)(C)C1CCC(N(Cc2ccc(C(=O)Nc3ccc4c(c3)C(=O)NC4=O)cc2)C(=O)Nc2cc(Cl)cc(Cl)c2)CC1 (stereo not drawn) [Example 171, 4-[1-(4-tert-Butylcyclohexyl)-3-(3,5-dichlorophenyl)ureidomethyl]-N-(1,3-dioxo-2,3-dihydro-1H-isoindol-5-yl)benzamide]",> 50%
9,"O=C(O)CCNC(=O)c1ccc(CN(CCC(c2ccccc2)c2ccccc2)Cc2ccc(C(F)(F)F)cc2)cc1 [Example 141, 3-(4-{[(3,3-Diphenylpropyl)-(4-trifluoromethylbenzyl)amino]methyl}benzoylamino)propionic acid]",> 50%
10,"O=C(O)CCNC(=O)c1ccc(CN(Cc2ccc(C(F)(F)F)cc2)C(=O)Nc2ccc(SC(F)(F)F)cc2)s1 [Example 131, 3-{5-[1-(4-Trifluoromethylbenzyl)-3-(4-trifluoromethylsulfanylphenyl)ureidomethyl]thiophene-2-carbonylamino)propionic acid]",> 50%
11,"O=C(O)CCNC(=O)c1ccc(CN(C(=O)Nc2ccc(Cl)c(C(F)(F)F)c2)c2ccc3c(c2)OC(F)(F)C(F)(F)O3)cc1 [Example 191, 3-{4-[3-(4-Chloro-3-trifluoromethyl-phenyl)-1-(2,2,3,3-tetrafluoro-2,3-dihydrobenzo[1,4]-dioxin-6-yl)ureidomethyl]benzoylamino}propionic acid]",> 50%
12,"CC(C)(C)C1CCC(N(Cc2ccc(C(=O)Nc3ncnc4[nH]ncc34)cc2)C(=O)Nc2cc(Cl)cc(Cl)c2)CC1 (stereo not drawn) [Example 170, 4-[1-(4-tert-Butylcyclohexyl)-3-(3,5-dichlorophenyl)ureidomethyl]-N-(1H-pyrazolo[3,4-d]pyrimidin-4-yl)benzamide]",> 50%
13,"CC(C)(C)C1CCC(N(Cc2cccc(C(=O)NCCC(=O)O)c2)C(=O)Nc2ccc(OC(F)(F)F)cc2)CC1 (stereo not drawn) [Example 134, 3-{3-[1-(4-tert-Butylcyclohexyl)-3-(4-trifluoromethoxyphenyl)ureidomethyl]benzoylamino)propionic acid]",> 50%
14,"CCCCc1ccc(NC(=O)N(Cc2ccc(C(=O)NCCC(=O)O)cc2)Cc2ccccc2OC(F)(F)F)cc1 [Example 116, 3-{4-[1-(2-Trifluoromethoxybenzyl)-3-(4-butylphenyl)ureidomethyl]benzoylamino)propionic acid]",> 50%
15,"CN(CCN(Cc1ccc(C(=O)NCCC(=O)O)cc1)C(=O)Nc1cccc(SC(F)(F)F)c1)C(=O)OC(C)(C)C [Example 207, 3-{4-[1-[2-(N-tert-Butoxycarbonyl-N-methylamino)ethyl]-3-(3-trifluoromethylsulfanylphenyl)ureidomethyl]benzoylamino}propionic acid]",> 50%
16,"O=C(O)CCNC(=O)c1ccc(CN(C(=O)Nc2ccc(OC(F)(F)F)cc2)C2C[C@H]2c2ccccc2)cc1 (stereo in doubt) [Example 187, 3-{4-[1-(2-Phenylcyclopropyl)-3-(4-trifluoromethoxyphenyl)ureidomethyl]benzoylamino}propionic acid]",> 50%
17,"O=C(O)CCCOc1ccc(CN(C(=O)Nc2ccc(OC(F)(F)F)cc2)c2ccc(C3CCCCC3)cc2)cc1 [Example 216, 4-{4-[1-(4-Cyclohexylphenyl)-3-(4-trifluoromethoxyphenyl)ureidomethyl]phenoxy}butyric acid]",> 50%
